Data as given in the supplement of paper PMC13386468.

Experiments:
Experiment in all cases: IC50 for competition of protein binding to Kinobeads
Conditions in all cases: assay detail: Kinobeads competition in P. falciparum blood-stage lysate
UniProt C0H4U0 = target: UniProt C0H4U0
UniProt C0H4V4 = target: UniProt C0H4V4
UniProt C0H5I7 = target: UniProt C0H5I7
UniProt C6KSQ1 = target: UniProt C6KSQ1
UniProt C6KT23 = target: UniProt C6KT23
UniProt C6KT82 = target: UniProt C6KT82
UniProt C6KTB9 = target: UniProt C6KTB9
UniProt O77376 = target: UniProt O77376
UniProt O77381 = target: UniProt O77381
UniProt Q6LFH8 = target: UniProt Q6LFH8
Chain of UniProt Q6LFH8 (Q6LFH8 whole entry): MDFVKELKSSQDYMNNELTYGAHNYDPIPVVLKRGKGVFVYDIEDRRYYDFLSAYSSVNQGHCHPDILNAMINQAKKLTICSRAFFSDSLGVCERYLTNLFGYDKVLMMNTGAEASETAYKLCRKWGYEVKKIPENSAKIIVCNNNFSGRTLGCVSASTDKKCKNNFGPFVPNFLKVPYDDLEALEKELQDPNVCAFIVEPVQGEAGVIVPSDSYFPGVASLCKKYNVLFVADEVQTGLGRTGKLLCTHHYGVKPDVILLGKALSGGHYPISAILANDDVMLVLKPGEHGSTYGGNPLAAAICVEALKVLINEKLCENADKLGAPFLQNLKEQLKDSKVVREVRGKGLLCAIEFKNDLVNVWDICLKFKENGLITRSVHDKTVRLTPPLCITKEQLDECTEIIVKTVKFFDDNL

UniProt Q7KQK3 = target: UniProt Q7KQK3
UniProt Q7KQL5 = target: UniProt Q7KQL5
Chain of UniProt Q7KQL5 (Q7KQL5 whole entry): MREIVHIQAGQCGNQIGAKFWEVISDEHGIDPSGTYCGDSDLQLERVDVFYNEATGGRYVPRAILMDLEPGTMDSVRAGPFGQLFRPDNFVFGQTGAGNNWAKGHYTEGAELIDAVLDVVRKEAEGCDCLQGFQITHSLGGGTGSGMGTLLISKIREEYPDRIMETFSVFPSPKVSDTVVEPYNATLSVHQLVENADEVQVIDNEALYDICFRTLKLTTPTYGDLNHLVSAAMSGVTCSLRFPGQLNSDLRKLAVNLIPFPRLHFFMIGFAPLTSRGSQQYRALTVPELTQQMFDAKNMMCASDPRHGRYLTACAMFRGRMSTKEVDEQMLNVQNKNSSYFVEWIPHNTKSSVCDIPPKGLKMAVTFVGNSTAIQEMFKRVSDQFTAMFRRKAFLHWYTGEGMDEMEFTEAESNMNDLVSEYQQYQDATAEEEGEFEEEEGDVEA

UniProt Q8I0P6 = target: UniProt Q8I0P6
UniProt Q8I207 = target: UniProt Q8I207
UniProt Q8I249 = target: UniProt Q8I249
UniProt Q8I2P2 = target: UniProt Q8I2P2
UniProt Q8I2W3 = target: UniProt Q8I2W3
UniProt Q8I2X3 = target: UniProt Q8I2X3
Chain of UniProt Q8I2X3 (Q8I2X3 whole entry): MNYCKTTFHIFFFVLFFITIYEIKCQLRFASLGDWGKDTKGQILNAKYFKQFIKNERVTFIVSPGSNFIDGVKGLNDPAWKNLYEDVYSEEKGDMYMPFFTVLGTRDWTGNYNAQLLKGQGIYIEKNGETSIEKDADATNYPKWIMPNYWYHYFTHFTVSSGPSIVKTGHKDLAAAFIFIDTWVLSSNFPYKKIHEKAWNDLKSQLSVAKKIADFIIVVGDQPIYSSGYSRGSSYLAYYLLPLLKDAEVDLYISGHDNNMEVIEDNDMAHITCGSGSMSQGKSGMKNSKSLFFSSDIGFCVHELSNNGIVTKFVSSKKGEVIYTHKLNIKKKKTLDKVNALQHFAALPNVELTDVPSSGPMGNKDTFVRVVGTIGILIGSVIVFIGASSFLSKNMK

UniProt Q8I388 = target: UniProt Q8I388
UniProt Q8I3I5 = target: UniProt Q8I3I5
UniProt Q8I3R0 = target: UniProt Q8I3R0
UniProt Q8I3Y8 = target: UniProt Q8I3Y8
Chain of UniProt Q8I3Y8 (Q8I3Y8 whole entry): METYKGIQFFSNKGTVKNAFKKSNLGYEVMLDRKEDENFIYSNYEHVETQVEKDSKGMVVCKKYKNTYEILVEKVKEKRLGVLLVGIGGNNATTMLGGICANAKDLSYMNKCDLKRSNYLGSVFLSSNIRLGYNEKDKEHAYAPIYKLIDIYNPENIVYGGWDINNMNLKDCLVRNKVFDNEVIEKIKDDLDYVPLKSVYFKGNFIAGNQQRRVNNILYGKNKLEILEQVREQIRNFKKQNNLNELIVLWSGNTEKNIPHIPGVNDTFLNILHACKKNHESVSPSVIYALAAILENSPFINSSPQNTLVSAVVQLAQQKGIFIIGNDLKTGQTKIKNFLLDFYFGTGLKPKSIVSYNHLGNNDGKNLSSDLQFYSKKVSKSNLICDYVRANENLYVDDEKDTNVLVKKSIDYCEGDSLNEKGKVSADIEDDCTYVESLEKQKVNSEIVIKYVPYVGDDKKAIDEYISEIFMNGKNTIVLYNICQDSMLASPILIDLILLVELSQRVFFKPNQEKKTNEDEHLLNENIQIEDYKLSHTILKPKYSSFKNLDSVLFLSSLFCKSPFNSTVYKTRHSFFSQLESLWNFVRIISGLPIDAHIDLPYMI

UniProt Q8I423 = target: UniProt Q8I423
Chain of UniProt Q8I423 (Q8I423 whole entry): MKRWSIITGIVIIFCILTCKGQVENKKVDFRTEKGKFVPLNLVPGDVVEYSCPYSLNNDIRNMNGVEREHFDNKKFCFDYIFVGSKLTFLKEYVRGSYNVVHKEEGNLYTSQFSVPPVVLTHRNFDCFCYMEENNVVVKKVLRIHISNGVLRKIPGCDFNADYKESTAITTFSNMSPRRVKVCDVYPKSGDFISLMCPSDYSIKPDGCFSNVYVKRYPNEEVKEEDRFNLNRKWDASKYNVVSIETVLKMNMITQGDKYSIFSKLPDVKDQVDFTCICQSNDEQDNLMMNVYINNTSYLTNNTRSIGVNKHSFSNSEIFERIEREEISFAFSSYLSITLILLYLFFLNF

UniProt Q8I463 = target: UniProt Q8I463
UniProt Q8I510 = target: UniProt Q8I510
UniProt Q8I5B2 = target: UniProt Q8I5B2
UniProt Q8I5F9 = target: UniProt Q8I5F9
UniProt Q8I5M2 = target: UniProt Q8I5M2
UniProt Q8I5Q6 = target: UniProt Q8I5Q6
UniProt Q8I5X8 = target: UniProt Q8I5X8
UniProt Q8IAU3 = target: UniProt Q8IAU3
UniProt Q8IB24 = target: UniProt Q8IB24
UniProt Q8IC35 = target: UniProt Q8IC35
UniProt Q8IDJ4 = target: UniProt Q8IDJ4
UniProt Q8IDZ9 = target: UniProt Q8IDZ9
UniProt Q8IE85 = target: UniProt Q8IE85
UniProt Q8IEK3 = target: UniProt Q8IEK3
UniProt Q8IHR8 = target: UniProt Q8IHR8
UniProt Q8IHT4 = target: UniProt Q8IHT4
UniProt Q8IIR0 = target: UniProt Q8IIR0
UniProt Q8IIV8 = target: UniProt Q8IIV8
UniProt Q8IJP3 = target: UniProt Q8IJP3
UniProt Q8IJS1 = target: UniProt Q8IJS1
UniProt Q8IJX3 = target: UniProt Q8IJX3
UniProt Q8IKS4 = target: UniProt Q8IKS4
UniProt Q8IL41 = target: UniProt Q8IL41
UniProt Q8IL56 = target: UniProt Q8IL56
UniProt Q8ILI9 = target: UniProt Q8ILI9
UniProt Q8ILW9 = target: UniProt Q8ILW9
Chain of UniProt Q8ILW9 (Q8ILW9 whole entry): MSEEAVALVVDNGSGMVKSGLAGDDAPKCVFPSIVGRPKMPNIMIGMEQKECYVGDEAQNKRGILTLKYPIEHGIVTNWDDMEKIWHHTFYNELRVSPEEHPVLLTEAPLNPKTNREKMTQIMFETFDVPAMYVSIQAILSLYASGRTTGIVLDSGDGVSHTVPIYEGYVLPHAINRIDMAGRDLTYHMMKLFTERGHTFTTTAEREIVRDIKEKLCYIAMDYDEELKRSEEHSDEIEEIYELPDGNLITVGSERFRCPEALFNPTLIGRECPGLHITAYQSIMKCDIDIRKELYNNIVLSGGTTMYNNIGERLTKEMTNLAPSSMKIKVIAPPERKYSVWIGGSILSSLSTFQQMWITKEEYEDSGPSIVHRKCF

UniProt Q8ILZ3 = target: UniProt Q8ILZ3
UniProt Q9TY98 = target: UniProt Q9TY98
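Note: native unpurified kinases from lysate captured on beads bearing immobilized kinase inhibitors, with bead-bound kinases quantified by mass spectrometry across compound doses.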

## O=c1[nH]c2ccc(Cl)cc2c(NC2CN3CCC2CC3)c1-c1nc2ccccc2[nH]1 (stereo unspecified) [CHIR-124]
UniProt C0H4U0
  IC50: > 20 µM
UniProt C0H4V4
  IC50: > 20 µM
UniProt C0H5I7
  IC50: > 20 µM
UniProt C6KSQ1
  IC50: 0.299 µM
UniProt C6KT23
  IC50: > 20 µM
UniProt C6KT82
  IC50: > 20 µM
UniProt C6KTB9
  IC50: > 20 µM
UniProt O77376
  IC50: > 20 µM
UniProt O77381
  IC50: > 20 µM
UniProt Q6LFH8
  IC50: > 20 µM
UniProt Q7KQK3
  IC50: > 20 µM
UniProt Q7KQL5
  IC50: > 20 µM
UniProt Q8I0P6
  IC50: > 20 µM
UniProt Q8I207
  IC50: > 20 µM
UniProt Q8I249
  IC50: > 20 µM
UniProt Q8I2P2
  IC50: > 20 µM
UniProt Q8I2W3
  IC50: > 20 µM
UniProt Q8I2X3
  IC50: > 20 µM
UniProt Q8I388
  IC50: > 20 µM
UniProt Q8I3I5
  IC50: > 20 µM
UniProt Q8I3R0
  IC50: > 20 µM
UniProt Q8I3Y8
  IC50: > 20 µM
UniProt Q8I423
  IC50: > 20 µM
UniProt Q8I463
  IC50: > 20 µM
UniProt Q8I510
  IC50: > 20 µM
UniProt Q8I5B2
  IC50: > 20 µM
UniProt Q8I5F9
  IC50: > 20 µM
UniProt Q8I5M2
  IC50: > 20 µM
UniProt Q8I5Q6
  IC50: > 20 µM
UniProt Q8I5X8
  IC50: > 20 µM
UniProt Q8IAU3
  IC50: > 20 µM
UniProt Q8IB24
  IC50: > 20 µM
UniProt Q8IC35
  IC50: > 20 µM
UniProt Q8IDJ4
  IC50: > 20 µM
UniProt Q8IDZ9
  IC50: > 20 µM
UniProt Q8IE85
  IC50: > 20 µM
UniProt Q8IEK3
  IC50: > 20 µM
UniProt Q8IHR8
  IC50: > 20 µM
UniProt Q8IHT4
  IC50: > 20 µM
UniProt Q8IIR0
  IC50: > 20 µM
UniProt Q8IIV8
  IC50: > 20 µM
UniProt Q8IJP3
  IC50: > 20 µM
UniProt Q8IJS1
  IC50: > 20 µM
UniProt Q8IJX3
  IC50: > 20 µM
UniProt Q8IKS4
  IC50: > 20 µM
UniProt Q8IL41
  IC50: > 20 µM
UniProt Q8IL56
  IC50: > 20 µM
UniProt Q8ILI9
  IC50: > 20 µM
UniProt Q8ILW9
  IC50: > 20 µM
UniProt Q8ILZ3
  IC50: > 20 µM
UniProt Q9TY98
  IC50: > 20 µM
